≈ marks a conversion by molar mass, not a printed value.
What was measured:
eye [1] = assay: sustained release doses of Bimatoprost, reduction in intraocular pressure; format: in vivo; conditions: sustained release 20 to 200 ng daily, 0.2 to 2% of the daily drop dosage
Procedure: Commercially available solution concentrations of Bimatoprost are 0.03% by weight, often delivered once per day. Although the sustained release amount of Bimatnoprost released each day can vary, a sustained release of […] per day corresponds to about 2% of the 15 μg of Bimatoprost applied with a single drop of a 0.03% solution.

[2] = in water at 25° C.; cited from earlier work
eye [3] = conditions: cited from earlier work
[4] = topical drop, drug available to the eye; cited from earlier work

## CCNC(=O)CCC/C=C\C[C@@H]1[C@@H](/C=C/[C@@H](O)CCc2ccccc2)[C@H](O)C[C@@H]1O [Bimatoprost]
Eye [1]
  reduction in intraocular pressure: at least some reduction in intraocular pressure
[2]
  aqueous solubility: 300 µg/mL (≈ 722 µM)

## CC(C)OC(=O)CCC/C=C\C[C@@H]1[C@@H](CC[C@@H](O)CCc2ccccc2)[C@H](O)C[C@@H]1O [Latanoprost]
Eye [3]; about 200 ng of drug remaining on the eye after a Xalatan drop (2.5 μg)
  duration of effective IOP lowering: at least 24 hours
Eye [3]; lowest doses of 12.5 μg/mL QD or 15 μg/mL BID, eye drops
  IOP reduction relative to that of the 50 μg/mL QD dose: 60-75%

## CC(C)(C)NC[C@H](O)COc1nsnc1N1CCOCC1 [Timolol]
[4]
  bioavailability: 30-50%

From patent publication US10300014B2, “Nasolacrimal drainage system implants for drug therapy” (Mati Therapeutics Inc., priority 2006, dated 2019)
